# Assays:
# HSD17B2 = HSD17B2 (Homo sapiens (Human), UniProt P37059); experiment: HSD17B2 enzymatic blocking assay; assay type: biochemical; conditions: 1.8 μM Estradiol, 650 μM NAD; read-out: Inhibition of HSD17B2 IC50
# Method: To screen compounds of the disclosure for their ability to block HSD17B2 function, an enzymatic blocking assay was performed. For the assay, HSD17B2 activity was measured by detecting NADH formation from oxidation of Estradiol using a NADH Glo luminescence assay (Promega, #Cat. No. G9062). Compounds of the disclosure were evaluated in a dose titration assay where the compounds were titrated at 10-point dose curve using an Echo-555 liquid handling dispenser. HSD17B2 (SEQ ID NO: 3, expressed in mammalian cells) was added at a final concentration of 2 ng/μL in a buffer containing 50 mM Tris-HCl, pH 7.5, Pluronic F-127 0.05%, Tween20 0.01%, BSA 0.01% into a low volume white 384-well assay plate. Compounds were incubated with the enzyme for 15 min at 20° C. The assay reaction was then initiated by addition of 1.8 μM Estradiol substrate (Sigma, catalog #E2758-250MG, CAS: 50-28-2) and 650 μM NAD co-factor, and the reaction mixture was incubated for 45 min at 20° C. DMSO at a concentration of 0.5% was used as a negative control and a ‘no substrate’ control was used a positive control in the assay. Detection reagent was then added as per manufacturer's instructions, and the plate was subsequently incubated in the dark for 1 hour at room temperature, NADH generated was detected in the luminescence mode on the Envision Perkin Elmer plate reader. The IC50 values were determined using Dotmatics analysis software.
# HSD17B13 = HSD17B13 (Homo sapiens (Human), UniProt Q7Z5P4); experiment: HSD17B13 enzymatic inhibition assay (150 nM or 50 nM HSD17B13); assay type: biochemical; conditions: 50 nM HSD17B13; read-out: Inhibition of 50 nM of HSD17B13 IC50
# [1] = Microsome stability assay, human liver microsomes; assay type: in vitro ADME; conditions: 1 μM compound, 0.5 mg/mL microsomal protein; for microsomal CLint at 1 h, 1 µM / half-life at 1 h, 1 µM / microsomal CLint at 1 μM / half-life at 1 μM: human, human liver microsomes, pooled, NADPH, 37° C.; for microsomal CLint at 1 h, 1 µM / microsomal CLint at 1 μM: read-out: Microsome Stability Human liver microsomes Cl; for half-life at 1 h, 1 µM / half-life at 1 μM: read-out: Microsome Stability Human liver microsomes T½
# Procedure, shortened: (§1)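 Compound at 1 μM incubated at 37° C with pooled human or mouse liver microsomes (0.5 mg/mL protein) plus NADPH regenerating system, sampled at 0–60 min; a 60-min no-NADPH incubation also included. Single replicate; LC/MS/MS disappearance from analyte/internal standard peak area ratios, without standard curve.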
# [2] = Microsome stability assay, mouse liver microsomes; assay type: in vitro ADME; conditions: 1 μM compound, 0.5 mg/mL microsomal protein
# Procedure, shortened: as §1
# HSD17B1 = HSD17B1 (Homo sapiens (Human), UniProt P14061); experiment: HSD17B1 enzymatic blocking assay; assay type: biochemical; conditions: 25 μM Estradiol, 500 μM NAD; read-out: Inhibition of HSD17B1 IC50
# Method: To screen compounds of the disclosure for their ability to block HSD17B1 function, an enzymatic blocking assay was performed. For the assay, HSD17B1 activity was measured by detecting NADH formation from oxidation of Estradiol using a NADH Glo luminescence assay (Promega, #Cat. No. G9062). […] Compounds were incubated with the enzyme for 30 minutes at room temperature. […] DMSO at a concentration of 0.5% was used as a negative control and a ‘no substrate’ control was used a positive control in the assay. Detection reagent was then added as per manufacturer's instructions, and the plate was subsequently incubated in the dark for 1 hour at room temperature, NADH generated was detected in the luminescence mode on the Envision Perkin Elmer plate reader. The IC50 values were determined using Dotmatics analysis software.
# Sequence of HSD17B2 (P37059 other isoform, or with tags, fused parts or gaps): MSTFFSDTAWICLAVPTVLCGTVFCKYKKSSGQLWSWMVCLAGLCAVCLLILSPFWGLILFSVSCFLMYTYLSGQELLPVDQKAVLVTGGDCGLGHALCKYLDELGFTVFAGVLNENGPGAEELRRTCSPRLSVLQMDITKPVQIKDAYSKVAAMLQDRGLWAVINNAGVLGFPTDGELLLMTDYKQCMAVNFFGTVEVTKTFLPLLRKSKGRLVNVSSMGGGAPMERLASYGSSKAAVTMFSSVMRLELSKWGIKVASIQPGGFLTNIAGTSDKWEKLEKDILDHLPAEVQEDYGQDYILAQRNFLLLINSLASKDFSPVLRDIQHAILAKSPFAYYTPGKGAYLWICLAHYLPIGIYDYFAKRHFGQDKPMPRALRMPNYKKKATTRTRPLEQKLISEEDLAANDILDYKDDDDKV
# Sequence of HSD17B13 (Q7Z5P4 other isoform, or with tags, fused parts or gaps): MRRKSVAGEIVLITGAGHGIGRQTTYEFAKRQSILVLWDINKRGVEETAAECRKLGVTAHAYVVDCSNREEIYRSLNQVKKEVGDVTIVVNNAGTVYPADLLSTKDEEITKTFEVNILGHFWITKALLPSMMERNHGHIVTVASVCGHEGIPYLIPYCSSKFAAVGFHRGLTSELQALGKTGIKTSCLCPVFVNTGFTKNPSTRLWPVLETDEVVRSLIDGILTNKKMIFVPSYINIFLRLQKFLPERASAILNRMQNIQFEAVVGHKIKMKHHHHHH
# Sequence of HSD17B1 (P14061 other isoform, or with tags, fused parts or gaps): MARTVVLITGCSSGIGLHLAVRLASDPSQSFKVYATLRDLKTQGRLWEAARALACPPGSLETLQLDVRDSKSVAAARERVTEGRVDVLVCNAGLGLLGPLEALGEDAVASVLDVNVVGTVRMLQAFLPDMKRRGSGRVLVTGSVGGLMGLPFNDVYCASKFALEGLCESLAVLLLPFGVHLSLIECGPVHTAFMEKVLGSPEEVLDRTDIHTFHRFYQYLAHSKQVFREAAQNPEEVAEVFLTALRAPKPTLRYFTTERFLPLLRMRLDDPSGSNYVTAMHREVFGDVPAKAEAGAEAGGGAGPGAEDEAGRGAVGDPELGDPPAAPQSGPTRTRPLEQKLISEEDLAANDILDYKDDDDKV
SMILES,IC50 (HSD17B2),IC50 (HSD17B13),Microsome Stability Human liver microsomes % Remaining @60 min [1],"microsomal CLint at 1 h, 1 µM [1]","half-life at 1 h, 1 µM [1]",Microsome Stability Mouse liver microsomes % Remaining @60 min ([2]; 60 min),"microsomal CLint at 1 h, 1 µM ([2]; mouse, mouse liver microsomes, pooled, NADPH, 37° C., read-out: Microsome Stability Mouse liver microsomes Cl)","half-life at 1 h, 1 µM ([2]; mouse, mouse liver microsomes, pooled, NADPH, 37° C., read-out: Microsome Stability Mouse liver microsomes T½)",microsomal CLint at 1 μM [1],half-life at 1 μM [1],IC50 (HSD17B1)
"O=C(NC1c2ccccc2Oc2ccccc21)c1ccc(C(F)(F)F)[nH]c1=O [Compound 1A, 2-oxo-6-(trifluoromethyl)-N-(9H-xanthen-9-yl)-1,2-dihydropyridine-3-carboxamide]",14.5 µM,0.53 µM,1.00%,176 µL/min/mg,7.87 min,,,,,,
"O=C(NC(Cc1ccccc1)c1ccc(Cl)cc1)c1ccc(C(F)(F)F)[nH]c1=O (centres unmarked) [Compound 19A, N-(1-(4-chlorophenyl)-2-phenylethyl)-2-oxo-6-(trifluoromethyl)-1,2-dihydropyridine-3-carboxamide]",13.2 µM,0.99 µM,8.05%,88.6 µL/min/mg,15.6 min,,,,,,
"COc1ccc(C(NC(=O)c2ccc(C(F)(F)F)[nH]c2=O)c2ccc(OC)cc2)cc1 [Compound 24, N-(bis(4-methoxyphenyl)methyl)-2-oxo-6-(trifluoromethyl)-1,2-dihydropyridine-3-carboxamide]",20.6 µM,0.6 µM,2.00%,131 µL/min/mg,10.6 min,,,,,,
"Cc1ccc2c(c1)-c1cc(C)ccc1C2NC(=O)c1ccc(C(F)(F)F)[nH]c1=O [Compound 43, N-(3,6-dimethyl-9H-fluoren-9-yl)-2-oxo-6-(trifluoromethyl)-1,2-dihydropyridine-3-carboxamide]",6.59 µM,0.49 µM,31.30%,39.8 µL/min/mg,34.8 min,,,,,,
"O=C(NC1c2ccccc2Oc2ccc(C3CC3)cc21)c1ccc(C(F)(F)F)[nH]c1=O (centres unmarked) [Compound 161, N-(2-cyclopropyl-9H-xanthen-9-yl)-2-oxo-6-(trifluoromethyl)-1,2-dihydropyridine-3-carboxamide]",8.22 µM,0.27 µM,,,,,,,,,9.16 µM
"CCc1cc(C(=O)NC2c3ccc(C)cc3Oc3cc(C)ccc32)c(=O)[nH]c1C(F)(F)F [Compound 176, N-(3,6-dimethyl-9H-xanthen-9-yl)-5-ethyl-2-oxo-6-(trifluoromethyl)-1,2-dihydropyridine-3-carboxamide]",28.3 µM,0.02 µM,,,,,,,,,6.43 µM
"Cc1ccc2c(c1)Oc1cc(C)ccc1C2NC(=O)c1cc(-c2ccccc2)c(C(F)(F)F)[nH]c1=O [Compound 177, N-(3,6-dimethyl-9H-xanthen-9-yl)-2-oxo-5-phenyl-6-(trifluoromethyl)-1,2-dihydropyridine-3-carboxamide]",14.6 µM,0.04 µM,,,,,,,,,4.21 µM
"CCCc1cc(C(=O)NC2c3ccc(Cl)cc3Oc3cc(Cl)ccc32)c(=O)[nH]c1C(F)(F)F [Compound 178, N-(3,6-dichloro-9H-xanthen-9-yl)-2-oxo-5-propyl-6-(trifluoromethyl)-1,2-dihydropyridine-3-carboxamide]",64 µM,0.06 µM,,,,,,,,,28.7 µM
"C=Cc1cc(C(=O)NC2c3ccc(C)cc3Oc3cc(C)ccc32)c(=O)[nH]c1C(F)(F)F [Compound 182, N-(3,6-dimethyl-9H-xanthen-9-yl)-2-oxo-6-(trifluoromethyl)-5-vinyl-1,2-dihydropyridine-3-carboxamide]",10.3 µM,0.02 µM,,,,,,,,,5.16 µM
"Cc1ccc2c(c1)Oc1cc(C)ccc1C2NC(=O)c1cc(C2=CCCCC2)c(C(F)(F)F)[nH]c1=O [Compound 183, 5-(cyclohex-1-en-1-yl)-N-(3,6-dimethyl-9H-xanthen-9-yl)-2-oxo-6-(trifluoromethyl)-1,2-dihydropyridine-3-carboxamide]",9.61 µM,0.03 µM,,,,,,,,,4.55 µM
"Cc1ccc2c(c1)Oc1cc(C)ccc1C2NC(=O)c1cnc(C(F)(F)F)[nH]c1=O [Compound 194, N-(3,6-dimethyl-9H-xanthen-9-yl)-6-oxo-2-(trifluoromethyl)-1,6-dihydropyrimidine-5-carboxamide]",17.4 µM,0.09 µM,,,,,,,,,19.2 µM
"CCCc1cc(CCC)cc(NC(=O)c2ccc(C(F)(F)F)[nH]c2=O)c1 [Compound 271, N-(3,5-dipropylphenyl)-2-oxo-6-(trifluoromethyl)-1,2-dihydropyridine-3-carboxamide]",> 100 µM,2.11 µM,,,,,,,,,27.9 µM

# Further lines, results first:
IC50 (HSD17B2),IC50 (HSD17B13),Microsome Stability Human liver microsomes % Remaining @60 min [1],"microsomal CLint at 1 h, 1 µM [1]","half-life at 1 h, 1 µM [1]",Microsome Stability Mouse liver microsomes % Remaining @60 min ([2]; 60 min),"microsomal CLint at 1 h, 1 µM ([2]; mouse, mouse liver microsomes, pooled, NADPH, 37° C., read-out: Microsome Stability Mouse liver microsomes Cl)","half-life at 1 h, 1 µM ([2]; mouse, mouse liver microsomes, pooled, NADPH, 37° C., read-out: Microsome Stability Mouse liver microsomes T½)",microsomal CLint at 1 μM [1],half-life at 1 μM [1],IC50 (HSD17B1),SMILES
11.7 µM,0.55 µM,1.12%,156 µL/min/mg,8.86 min,,,,,,,"CCc1ccc(C(NC(=O)c2ccc(C(F)(F)F)[nH]c2=O)c2ccccc2)cc1 (centres unmarked) [Compound 4A, N-((4-ethylphenyl)(phenyl)methyl)-2-oxo-6-(trifluoromethyl)-1,2-dihydropyridine-3-carboxamide]"
15.6 µM,0.39 µM,84.70%,,,56.90%,18.6 µL/min/mg,74.5 min,< 9.6 µL/min/mg,> 145 min,,"O=C(NC(c1ccccc1)c1ccc(CC(F)(F)F)cc1)c1ccc(C(F)(F)F)[nH]c1=O (centres unmarked) [Compound 12, 2-oxo-N-(phenyl(4-(2,2,2-trifluoroethyl)phenyl)methyl)-6-(trifluoromethyl)-1,2-dihydropyridine-3-carboxamide]"
23.7 µM,0.56 µM,,,,,,,,,> 30 µM,"N#Cc1ccc(C(NC(=O)c2ccc(C(F)(F)F)[nH]c2=O)c2ccccc2)cc1 (centres unmarked) [Compound 12A, N-((4-cyanophenyl)(phenyl)methyl)-2-oxo-6-(trifluoromethyl)-1,2-dihydropyridine-3-carboxamide]"
14.2 µM,2.81 µM,100.00%,,,,,,< 9.6 µL/min/mg,> 145 min,,"O=C(NC(c1ccc(C(F)(F)F)cc1)c1ccc(C(F)(F)F)cc1)c1ccc(C(F)(F)F)[nH]c1=O [Compound 14, N-(bis(4-(trifluoromethyl)phenyl)methyl)-2-oxo-6-(trifluoromethyl)-1,2-dihydropyridine-3-carboxamide]"
33.6 µM,1.91 µM,49.80%,20.2 µL/min/mg,68.6 min,,,,,,,"O=C(NC(c1ccccc1)c1ccc(O)cc1)c1ccc(C(F)(F)F)[nH]c1=O (centres unmarked) [Compound 19, N-((4-hydroxyphenyl)(phenyl)methyl)-2-oxo-6-(trifluoromethyl)-1,2-dihydropyridine-3-carboxamide]"
22.7 µM,1.2 µM,16.00%,62.4 µL/min/mg,22.2 min,,,,,,,"COc1ccc(C(NC(=O)c2ccc(C(F)(F)F)[nH]c2=O)c2ccccc2)cc1 (centres unmarked) [Compound 26, N-((4-methoxyphenyl)(phenyl)methyl)-2-oxo-6-(trifluoromethyl)-1,2-dihydropyridine-3-carboxamide]"
12.6 µM,1.3 µM,94.00%,,,,,,< 9.6 µL/min/mg,> 145 min,,"O=C(NC(c1ccccc1)c1ccc(C(F)(F)F)cc1)c1ccc(C(F)(F)F)[nH]c1=O (centres unmarked) [Compound 28, N-(phenyl(4-(trifluoromethyl)phenyl)methyl)-2-oxo-6-(trifluoromethyl)-1,2-dihydropyridine-3-carboxamide]"

# Reference: patent US11957687B2 (REGENERON PHARMACEUTICALS, INC., priority 2019, dated 2024)
